US20180078576A1, “SULPHATED XYLANS FOR TREATMENT OR PROPHYLAXIS OF RESPIRATORY DISEASES” (Paradigm Biopharmaceuticals Limited, priority 2007, published 2018)

How the values were obtained:
[1] = target: T1, recombinant human IL-4 (rhIL-4) (Homo sapiens, UniProt P05112); test: BIAcore inhibition of IL-4 binding to immobilized heparin; details: BIAcore chip, titration, FIG. 3A
T1 construct: made in house; host or cells: baculovirus expression system
T1 sequence (P05112 25-153): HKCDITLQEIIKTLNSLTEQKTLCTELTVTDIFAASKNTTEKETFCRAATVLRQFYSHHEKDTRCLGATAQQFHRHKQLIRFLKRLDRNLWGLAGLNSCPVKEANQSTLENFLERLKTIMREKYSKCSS
Excerpt: The optical phenomenon of surface plasmon resonance is used to monitor physical interactions between molecules. Passing a solution of a potential protein ligand (e.g. IL-4, IL-5 or eotaxin) over a sensor surface to which a target (e.g. heparin) is coupled monitors the real-time binding of protein ligands to the immobilized target. Detection is achieved by measuring refractive index changes very close to the sensor surface. When the refractive index is altered, the angle at which plasmon resonance occurs changes and this change directly correlates with the amount of protein interacting with the surface. A BIAcore 2000 is conveniently used. […]
Biotinylated heparin is immobilized on the biosensor chip. […] Solutions containing potential protein ligands of interest are injected over the sensor chip surface, and the binding is measured in real time (Fernig, In: Proteoglycan protocols, Ed. R. V. Iozzo, Humana Press, Totowa, N.J., USA, 2001). Baculovirus expressed recombinant human IL-4 (rhIL-4) and baculovirus expressed recombinant human IL-5 (rhIL-5) readily bind to heparin immobilized by this method (see PCT/AU2005/000551). […] Similarly, recombinant human eotaxin (CCL11) expressed in E. coli binds readily to immobilized heparin and binding is specific as there is little eotaxin binding to sensor chips lacking heparin. […]

[2] = target: T2, IL-4 (Homo sapiens, UniProt P05112); test: IL-4 dependent TF-1.8 cell proliferation (luciferase); type: cell-based
T2 construct: made in house
T2 sequence (P05112 25-153): T1 sequence (P05112 25-153)
Excerpt: PPS inhibited the proliferation of a human IL-4 responsive cell line. This occurs at very low doses and is not due to a toxic effect of the pentosan polysulfate because other, similarly sulfated polysaccharides, at the same concentrations of IL-4 and polysaccharide have no effect. These experiments utilize the TF-1.8 cells. TF-1.8 cells are a subclone of the TF-1 cells that have been selected for growth in IL-4 or IL-5. TF-1 cells were originally established from a bone marrow sample from a person with severe pancytopenia. These cells are dependent on IL-3 or GM-CSF for long term growth and are responsive to a variety of cytokines including IL-4, […].
TF-1.8 cells have been transfected with the firefly luciferase gene contained in the expression vector, pPGK-puromycin-luciferase (Coombe et al, 1998, supra). […] The cells are counted with a Coulter Z2 Particle Counter and Size Analyzer (Coulter Electronics, England) and routinely 2.5×10^4 cells are added to microplate wells that contain either no IL-4 (negative control) or various dilutions of IL-4. When the effect of PPS, or other sulfated polysaccharides is to be measured, the wells also contain various concentrations of these molecules. […]
The size of the sulfated xylose polysaccharides is also an important component of its anti-IL-4 activity. […] Light emissions are detected on a Victor 1420 Multi-label counter (Wallac, Turku, Finland). […]

[3] = target: T3, human MIP-1α (Homo sapiens, UniProt P10147); test: MIP-1α induced migration of DMSO treated U937 cells (chemotaxis); type: cell-based; details: MIP-1α 40 ng/ml
T3 sequence (P10147 24-92): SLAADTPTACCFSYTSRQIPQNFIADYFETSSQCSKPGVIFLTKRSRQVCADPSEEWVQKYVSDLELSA
Experimental: DMSO treated U937 cells were used to examine the cell migration in response to MIP-1α. U937 cells are a promonocytic human cell line originally derived from the pleural effusion of a patient with histiocytic lymphoma. These cells were treated with DMSO (1.2%) for 4 days before being used in chemotaxis experiments. The chemotaxis assays were performed in 96-well Costar chemotaxis plates and human MIP-1α (+/−inhibitor) was added to the bottom chamber and the DMSO treated U937 cells in RPMI/HEPES were added to the top chamber and the plate was incubated at 37° C. for 3 hour to allow cells to move from the top chamber into the bottom. The number of cells migrating into the bottom chamber was quantified by labeling with AQUEOUS ONE (30 μl/well) for 1 hour before absorbance at 490 nm is read. MIP-1α was used at a final concentration of 40 ng/ml and the inhibitors were the sulfated xylan pentasaccharide (10 and 50 μg/ml) and PPS (10 and 50 μg/ml). It is clear from these experiments that both PPS and the sulfated xylan pentasaccharide inhibited MIP-1α stimulated cell movement.

Substance: Pentosan polysulfate [PPS]
- IC50 [1]: 25 to 80 nM
- Inhibition of IL-4 dependent proliferation of TF-1.8 cells (in words) ([2]; dose-response, FIG. 5): markedly inhibits
- Percentage Inhibition of IL-4 induced TF-1.8 cell proliferation ([2]; inhibitor 5.0 μg/ml, IL-4 2.5 ng/ml, 48 hours): 58%
- Inhibition of MIP-1α stimulated cell movement ([3]; 10 μg/ml): 48%
- Inhibition of MIP-1α stimulated cell movement ([3]; 50 μg/ml): 69%
